Assay results taken from ChEMBL document CHEMBL4270597, “Donepezil-butylated hydroxytoluene (BHT) hybrids as Anti-Alzheimer's disease agents with cholinergic, antioxidant, and neuroprotective properties” (Eur J Med Chem, 2018).
The source made the active and inactive calls. The calls are words filed in the database; no cut-off is given here.

Tests used:
Acetylcholinesterase [1] = target: Acetylcholinesterase (Electrophorus electricus, UniProt O42275); assay: Inhibition of electric eel AChE using acetylthiocholine chloride as substrate incubated for 5 mins followed by substrate addition measured after 180 secs by Ellman's method
[2] = Antioxidant activity assessed as ABTS radical cation scavenging activity by measuring trolox equivalent antioxidant capacity measured at 6 mins; format: functional
[3] = target: T1, Amine oxidase [flavin-containing] A (Homo sapiens, UniProt P21397); assay: Inhibition of human MAO-A using p-tyramine as substrate incubated for 15 mins followed by substrate addition measured for 20 mins by fluorescence assay
T1 sequence (P21397 whole entry): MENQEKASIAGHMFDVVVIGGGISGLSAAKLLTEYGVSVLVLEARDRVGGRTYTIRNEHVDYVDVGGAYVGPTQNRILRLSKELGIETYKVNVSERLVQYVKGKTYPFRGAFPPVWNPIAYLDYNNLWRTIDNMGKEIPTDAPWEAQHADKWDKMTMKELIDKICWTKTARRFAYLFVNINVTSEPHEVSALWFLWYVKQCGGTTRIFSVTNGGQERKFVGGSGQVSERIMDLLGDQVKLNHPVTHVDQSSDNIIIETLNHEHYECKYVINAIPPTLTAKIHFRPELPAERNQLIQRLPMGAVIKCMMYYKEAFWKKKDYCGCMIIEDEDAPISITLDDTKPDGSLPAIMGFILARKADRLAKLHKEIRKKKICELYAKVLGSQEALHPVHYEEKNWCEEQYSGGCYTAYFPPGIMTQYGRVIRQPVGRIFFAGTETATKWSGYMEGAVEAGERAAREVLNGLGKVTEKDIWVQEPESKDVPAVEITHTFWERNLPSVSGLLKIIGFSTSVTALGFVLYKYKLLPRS

Cholinesterase [4] = target: T2, Cholinesterase (Homo sapiens, UniProt P06276); assay: Inhibition of human serum BuChE using butyrylthiocholine iodide as substrate incubated for 5 mins followed by substrate addition measured after 180 secs by Ellman's method; conditions: read-out: IC50
[5] = Antioxidant activity assessed as DPPH radical scavenging activity at 100 uM measured after 30 mins incubation in dark by UV-Visible spectrophotometric analysis relative to control; format: functional
Acetylcholinesterase [6] = target: T3, Acetylcholinesterase (Homo sapiens, UniProt P22303); assay: Inhibition of human erythrocyte AChE using acetylthiocholine chloride as substrate incubated for 5 mins followed by substrate addition measured after 180 secs by Ellman's method
[7] = Antioxidant activity assessed as trolox equivalent of AAPH-induced radical scavenging activity preincubated for 15 mins followed by AAPH addition measured every minute for 120 mins by ORAC-FL based fluorescein assay; format: functional
Homo sapiens = organism: Homo sapiens; assay: Selectivity index, ratio of IC50 for human serum BuChE to IC50 for human erythrocyte AChE
Cholinesterase [8] = target: Cholinesterase (Equus caballus, UniProt P81908); assay: Inhibition of equine serum BuChE using butyrylthiocholine iodide as substrate incubated for 5 mins followed by substrate addition measured after 180 secs by Ellman's method
[9] = target: T4, Amine oxidase [flavin-containing] B (Homo sapiens, UniProt P27338); assay: Inhibition of human MAO-B at 100 uM using p-tyramine as substrate incubated for 15 mins followed by substrate addition measured for 20 mins by fluorescence assay relative to control
T4 sequence (P27338 whole entry): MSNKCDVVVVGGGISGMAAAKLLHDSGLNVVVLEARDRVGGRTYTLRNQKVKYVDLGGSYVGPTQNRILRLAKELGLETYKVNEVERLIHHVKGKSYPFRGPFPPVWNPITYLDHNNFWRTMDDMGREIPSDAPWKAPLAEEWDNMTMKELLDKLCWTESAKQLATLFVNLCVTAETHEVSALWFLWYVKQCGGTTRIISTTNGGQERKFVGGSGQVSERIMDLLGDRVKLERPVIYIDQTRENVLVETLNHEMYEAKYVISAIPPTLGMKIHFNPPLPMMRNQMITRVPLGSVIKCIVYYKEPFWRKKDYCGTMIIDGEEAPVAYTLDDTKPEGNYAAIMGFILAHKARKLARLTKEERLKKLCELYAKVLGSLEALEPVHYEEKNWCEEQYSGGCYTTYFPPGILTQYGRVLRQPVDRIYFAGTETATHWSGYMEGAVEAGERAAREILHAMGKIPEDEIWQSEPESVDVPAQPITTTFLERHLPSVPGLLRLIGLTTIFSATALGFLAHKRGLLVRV

[10] = Half life in Sprague-Dawley rat liver microsomes in presence of NADPH by UPLC/MS analysis
Mus musculus = assay: Reversal of scopolamine-induced memory impairment in ICR mouse assessed as increase in step-through latency time at 5 mg/kg, po administered for 10 consecutive days and 60 mins prior to training trial followed by scopolamine challenge at 30 mins post dose measured 24 hrs after training trial by passive avoidance test; format: functional, organism-based
BV-2 = assay: Antineuroinflammatory activity in mouse BV2 cells assessed as inhibition of LPS-induced NO production at 10 to 30 uM after 24 hrs by Griess assay; format: functional, cell-based
[11] = target: T4, Amine oxidase [flavin-containing] B; assay: Inhibition of human MAO-B using p-tyramine as substrate incubated for 15 mins followed by substrate addition measured for 20 mins by fluorescence assay
[12] = Antioxidant activity assessed as DPPH radical scavenging activity measured after 30 mins incubation in dark by UV-Visible spectrophotometric analysis; format: functional
PC-12 [13] = assay: Cytotoxicity against rat PC12 cells assessed as decrease in cell viability at 30 uM after 24 hrs by MTT assay; format: cell-based; conditions: pc-12, 24 h
PC-12 [14] = assay: Cytotoxicity against rat PC12 cells assessed as decrease in cell viability at 20 uM after 24 hrs by MTT assay; format: cell-based; conditions: pc-12, 24 h
Cholinesterase [15] = target: T2, Cholinesterase; assay: Inhibition of human serum BuChE at 100 uM using butyrylthiocholine iodide as substrate incubated for 5 mins followed by substrate addition measured after 180 secs by Ellman's method relative to control
[16] = target: Cholinesterase (Equus caballus) (UniProt P81908); assay: Inhibition of equine serum BuChE at 100 uM using butyrylthiocholine iodide as substrate incubated for 5 mins followed by substrate addition measured after 180 secs by Ellman's method relative to control
[17] = target: Acetylcholinesterase (Electrophorus electricus) (UniProt O42275); assay: Inhibition of electric eel AChE at 100 uM using acetylthiocholine chloride as substrate incubated for 5 mins followed by substrate addition measured after 180 secs by Ellman's method relative to control
[18] = target: T1, Amine oxidase [flavin-containing] A; assay: Inhibition of human MAO-A at 100 uM using p-tyramine as substrate incubated for 15 mins followed by substrate addition measured for 20 mins by fluorescence assay relative to control
Acetylcholinesterase [19] = target: T3, Acetylcholinesterase; assay: Inhibition of human erythrocyte AChE at 100 uM using acetylthiocholine chloride as substrate incubated for 5 mins followed by substrate addition measured after 180 secs by Ellman's method relative to control
PC-12 [20] = assay: Neuroprotective activity against H2O2-induced oxidative stress in rat PC12 cells assessed as increase in cell viability pretreated for 4 hrs followed by H2O2 challenge measured after 24 hrs by MTT assay; format: functional, cell-based
[21] = target: Amyloid-beta precursor protein (Homo sapiens) (UniProt P05067); assay: Inhibition of self-induced amyloid beta 42 (unknown origin) aggregation at 20 uM incubated for 46 to 48 hrs by thioflavin-T fluorescence assay relative to control
Acetylcholinesterase [22] = target: T3, Acetylcholinesterase; assay: Mixed-type inhibition of human AChE using acetylthiocholine chloride as substrate incubated for 5 mins followed by substrate addition by Lineweaver-Burk plot analysis
[23] = target: Amyloid-beta precursor protein (Homo sapiens) (UniProt P05067); assay: Inhibition of AChE-induced amyloid beta 40 (unknown origin) aggregation at 100 uM by thioflavin-T fluorescence assay relative to control

T2 sequence (P06276 whole entry): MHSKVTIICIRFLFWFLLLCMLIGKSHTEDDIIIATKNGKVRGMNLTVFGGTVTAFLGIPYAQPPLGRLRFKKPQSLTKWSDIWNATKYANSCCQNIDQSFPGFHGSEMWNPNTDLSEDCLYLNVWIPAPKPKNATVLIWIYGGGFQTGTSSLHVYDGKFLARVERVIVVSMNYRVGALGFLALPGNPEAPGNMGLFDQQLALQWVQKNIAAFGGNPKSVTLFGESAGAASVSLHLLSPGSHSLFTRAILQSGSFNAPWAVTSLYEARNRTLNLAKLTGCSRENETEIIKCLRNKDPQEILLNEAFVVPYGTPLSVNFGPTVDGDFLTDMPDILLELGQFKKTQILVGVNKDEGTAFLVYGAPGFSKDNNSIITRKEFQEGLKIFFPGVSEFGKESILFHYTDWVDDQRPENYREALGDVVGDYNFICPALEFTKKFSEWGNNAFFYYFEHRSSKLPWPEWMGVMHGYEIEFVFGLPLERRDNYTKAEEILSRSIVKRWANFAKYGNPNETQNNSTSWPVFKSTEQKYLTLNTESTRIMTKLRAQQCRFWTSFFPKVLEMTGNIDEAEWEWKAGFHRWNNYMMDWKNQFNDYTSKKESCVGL
Chain of Acetylcholinesterase (Electrophorus electricus, UniProt O42275) (O42275 whole entry): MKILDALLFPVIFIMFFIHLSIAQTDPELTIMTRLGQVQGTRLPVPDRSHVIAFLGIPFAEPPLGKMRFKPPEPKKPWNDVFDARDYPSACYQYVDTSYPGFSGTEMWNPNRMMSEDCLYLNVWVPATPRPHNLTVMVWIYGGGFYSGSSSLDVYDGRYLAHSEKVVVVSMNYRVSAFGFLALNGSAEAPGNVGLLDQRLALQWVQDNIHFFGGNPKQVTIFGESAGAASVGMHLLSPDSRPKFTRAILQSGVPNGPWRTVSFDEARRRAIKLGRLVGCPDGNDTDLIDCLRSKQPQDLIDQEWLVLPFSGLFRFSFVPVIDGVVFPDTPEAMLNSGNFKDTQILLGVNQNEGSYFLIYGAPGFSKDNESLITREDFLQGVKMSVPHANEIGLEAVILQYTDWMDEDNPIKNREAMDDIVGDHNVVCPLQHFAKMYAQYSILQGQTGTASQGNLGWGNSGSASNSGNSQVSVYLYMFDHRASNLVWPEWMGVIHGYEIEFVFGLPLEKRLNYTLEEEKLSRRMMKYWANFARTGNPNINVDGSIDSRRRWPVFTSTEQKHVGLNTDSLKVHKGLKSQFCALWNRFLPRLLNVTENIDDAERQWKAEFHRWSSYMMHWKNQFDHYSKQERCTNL
Chain of Cholinesterase (Equus caballus, UniProt P81908) (P81908 whole entry): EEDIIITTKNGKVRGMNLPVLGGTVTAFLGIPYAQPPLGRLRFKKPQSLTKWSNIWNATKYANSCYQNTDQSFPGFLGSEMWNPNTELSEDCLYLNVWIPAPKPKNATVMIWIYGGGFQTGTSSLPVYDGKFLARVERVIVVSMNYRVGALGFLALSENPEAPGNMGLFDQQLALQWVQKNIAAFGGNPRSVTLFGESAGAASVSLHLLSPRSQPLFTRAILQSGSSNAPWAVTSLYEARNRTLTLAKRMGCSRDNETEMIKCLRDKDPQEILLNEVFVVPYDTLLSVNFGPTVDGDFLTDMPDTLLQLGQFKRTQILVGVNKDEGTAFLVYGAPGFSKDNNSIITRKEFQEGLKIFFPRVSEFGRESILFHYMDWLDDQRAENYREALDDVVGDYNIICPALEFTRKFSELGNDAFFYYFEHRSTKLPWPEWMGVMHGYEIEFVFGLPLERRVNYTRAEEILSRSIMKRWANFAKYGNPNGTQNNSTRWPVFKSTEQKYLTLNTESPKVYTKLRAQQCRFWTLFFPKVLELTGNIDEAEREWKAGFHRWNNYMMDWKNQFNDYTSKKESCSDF
Chain of Cholinesterase (Equus caballus) (P81908 whole entry): as above
T3 sequence (P22303 whole entry): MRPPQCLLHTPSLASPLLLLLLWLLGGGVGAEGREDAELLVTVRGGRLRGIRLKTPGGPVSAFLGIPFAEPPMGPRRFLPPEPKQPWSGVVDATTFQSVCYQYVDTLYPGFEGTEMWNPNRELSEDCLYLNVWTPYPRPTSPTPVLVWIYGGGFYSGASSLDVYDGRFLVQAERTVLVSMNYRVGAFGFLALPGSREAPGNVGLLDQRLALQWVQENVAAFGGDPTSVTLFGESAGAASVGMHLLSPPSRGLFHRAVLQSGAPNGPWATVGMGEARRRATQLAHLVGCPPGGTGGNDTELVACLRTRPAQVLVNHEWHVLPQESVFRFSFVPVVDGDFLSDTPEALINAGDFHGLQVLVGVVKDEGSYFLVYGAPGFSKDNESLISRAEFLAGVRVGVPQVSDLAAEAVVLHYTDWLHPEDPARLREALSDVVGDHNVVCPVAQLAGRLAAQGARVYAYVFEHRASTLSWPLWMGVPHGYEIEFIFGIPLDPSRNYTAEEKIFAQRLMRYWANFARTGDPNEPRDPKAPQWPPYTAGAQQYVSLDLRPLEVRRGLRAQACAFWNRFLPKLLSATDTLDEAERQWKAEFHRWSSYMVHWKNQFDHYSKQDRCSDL
Chain of Amyloid-beta precursor protein (Homo sapiens) (P05067 whole entry): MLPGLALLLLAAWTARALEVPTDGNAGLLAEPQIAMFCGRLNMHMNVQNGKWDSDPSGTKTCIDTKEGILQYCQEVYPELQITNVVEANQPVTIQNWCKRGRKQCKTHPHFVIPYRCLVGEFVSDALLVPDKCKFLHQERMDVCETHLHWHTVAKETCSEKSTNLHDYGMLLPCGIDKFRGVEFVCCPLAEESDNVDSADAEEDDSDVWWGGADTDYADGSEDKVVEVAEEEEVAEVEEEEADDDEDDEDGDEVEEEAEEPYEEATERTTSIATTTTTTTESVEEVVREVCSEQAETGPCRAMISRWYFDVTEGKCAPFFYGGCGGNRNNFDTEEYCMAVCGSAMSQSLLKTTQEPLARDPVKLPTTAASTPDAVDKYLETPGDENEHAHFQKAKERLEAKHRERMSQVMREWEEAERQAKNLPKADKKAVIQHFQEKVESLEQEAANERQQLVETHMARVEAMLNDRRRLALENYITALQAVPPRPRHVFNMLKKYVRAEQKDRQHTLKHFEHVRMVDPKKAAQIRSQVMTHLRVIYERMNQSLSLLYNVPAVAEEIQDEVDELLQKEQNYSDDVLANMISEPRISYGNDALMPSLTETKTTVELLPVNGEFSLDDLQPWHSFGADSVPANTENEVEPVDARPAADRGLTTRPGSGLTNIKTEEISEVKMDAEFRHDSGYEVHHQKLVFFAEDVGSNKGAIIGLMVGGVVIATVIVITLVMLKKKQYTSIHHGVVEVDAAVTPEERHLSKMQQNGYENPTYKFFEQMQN
Chain of Acetylcholinesterase (Electrophorus electricus) (O42275 24-633 limits assumed): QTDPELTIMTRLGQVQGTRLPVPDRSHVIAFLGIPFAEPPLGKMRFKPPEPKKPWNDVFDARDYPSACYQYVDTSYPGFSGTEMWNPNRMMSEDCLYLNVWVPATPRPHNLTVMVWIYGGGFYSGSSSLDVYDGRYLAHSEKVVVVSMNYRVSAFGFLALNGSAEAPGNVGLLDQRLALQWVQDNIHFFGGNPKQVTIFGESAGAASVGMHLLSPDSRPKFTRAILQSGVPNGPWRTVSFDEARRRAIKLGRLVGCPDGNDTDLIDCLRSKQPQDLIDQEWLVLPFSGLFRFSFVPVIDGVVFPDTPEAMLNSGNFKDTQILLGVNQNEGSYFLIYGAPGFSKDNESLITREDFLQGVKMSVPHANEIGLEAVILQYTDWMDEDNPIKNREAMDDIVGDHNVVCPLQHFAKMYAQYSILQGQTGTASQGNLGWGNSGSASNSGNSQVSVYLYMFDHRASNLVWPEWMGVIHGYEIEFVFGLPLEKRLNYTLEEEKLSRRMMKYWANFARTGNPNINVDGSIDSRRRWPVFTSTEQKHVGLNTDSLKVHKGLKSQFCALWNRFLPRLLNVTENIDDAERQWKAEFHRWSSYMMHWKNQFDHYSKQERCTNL

SMILES	IC50 (Acetylcholinesterase [1]) [µM]	Activity (mmolequiv/mmol) [2]	IC50 [3] [µM]	IC50 (Cholinesterase [4]) [µM]	Activity [5] [%]	IC50 (Acetylcholinesterase [6]) [µM]	Activity (mmolequiv/mmol) [7]	Ratio IC50 (Homo sapiens)	IC50 (Cholinesterase [8]) [µM]	IC50 [11] [µM]	IC50 [12] [µM]	Activity (PC-12 [13])	Activity (PC-12 [14])	inhibition (Cholinesterase [15]) [%]	inhibition [16] [%]	inhibition at 100 µM [18] [%]	inhibition (Acetylcholinesterase [19]) [%]	other results
CC(C)(C)c1cc(C(=O)CNCC2CCN(Cc3ccccc3)CC2)cc(C(C)(C)C)c1O	6.43	0.28	41.5	9.61	24.2	2.44	0.36	4	5.38	–	–	–	–	–	–	–	–	inhibition at 100 µM [9]: 42%
COc1cc2c(cc1OC)C(=O)C(CC1CCN(Cc3ccccc3)CC1)C2 (stereo unspecified) [DONEPEZIL]	–	–	–	–	–	–	–	–	–	–	–	–	–	–	–	–	–	half-life ([10]; microsomes): 1.21 h; Activity (Mus musculus): Active; inhibition (BV-2): inactive
CC(C)(C)c1cc(C(=O)CNCCC2CCN(Cc3ccccc3)CC2)cc(C(C)(C)C)c1O	2.44	0.27	95.2	19.6	26.7	1.38	0.31	14	48.5	92.1	–	–	–	–	–	–	–	–
O=C(/C=C/c1ccc(O)cc1)NCCC1CCN(Cc2ccccc2)CC1	0.81	0.55	–	1.22	–	2.51	1.81	0.49	1.26	–	72.1	Toxic	Non-Toxic	–	–	–	–	–
CC(C)(C)c1cc(C(=O)NCC2CCN(Cc3ccccc3)CC2)cc(C(C)(C)C)c1O	–	0.65	–	–	48.2	–	1.47	–	–	–	–	–	–	23.1	8.61	15.8	15.7	inhibition [17]: 38.1%; inhibition at 100 µM [9]: 16.1%
O=C(/C=C/c1ccccc1)NCCC1CCN(Cc2ccccc2)CC1	0.55	0.31	–	1.67	–	0.45	0.72	3.7	–	–	> 200	Toxic	Non-Toxic	–	–	–	–	–
CC(C)(C)c1cc(C(=O)NC2CCN(Cc3ccccc3)CC2)cc(C(C)(C)C)c1O	55.6	0.74	–	–	47.4	–	1.53	–	–	85.1	–	–	–	19.6	34.6	49.2	20.1	–
CC(C)(C)c1cc(/C=C/C(=O)NCCC2CCN(Cc3ccccc3)CC2)cc(C(C)(C)C)c1O	0.53	0.91	62.3	84.8	–	2.23	1.52	38	–	8.5	81.7	Toxic	Non-Toxic	–	48	–	–	Activity (PC-12 [20]): Dose-dependent effect; inhibition [21]: 43.5 to 56.7%; Ki (Acetylcholinesterase [22]): 3.2 µM; inhibition [23]: 38.4%
CC(C)(C)c1cc(CCC(=O)NCC2CCN(Cc3ccccc3)CC2)cc(C(C)(C)C)c1O	–	0.63	–	–	–	–	0.97	–	–	89.1	63.4	–	–	14	14.6	38.4	12.6	inhibition [17]: 27.4%
C[C@]12CC[C@H]3[C@@H](CCC4=CC(=O)CC[C@@]43C)[C@@H]1CC[C@@H]2O [TESTOSTERONE]	–	–	–	–	–	–	–	–	–	–	–	–	–	–	–	–	–	half-life ([10]; liver microsomes): < 0.0833 h
